# Data: EP0183129A1, “Quinolonecarboxylic acid derivatives” (KYORIN PHARMACEUTICAL CO., LTD., priority 1984, dated 1986)
# Experiments:
# [1] = tested on: S. marcescens GN 7577; assay: In vitro antibacterial activity, MIC (standard strain); type: cell-based; conditions: Serratia marcescens, GN7577; S. marcescens GN 7577; 10^6 cells/ml; standard strain; read-out: MIC
# [2] = tested on: Yersinia enterocolitica IID 981; assay: as above; type: cell-based; conditions: IID981; Yersinia enterocolitica IID 981; 10^6 cells/ml; standard strain; read-out: MIC
# [3] = tested on: S. faecalis 402; assay: In vitro antibacterial activity, MIC (clinical isolates); type: cell-based; conditions: Enterococcus faecalis; S. faecalis 402; 10^6 cells/ml; clinical isolate; read-out: MIC
# [4] = tested on: Klebsiella pneumoniae KY(GN)6445; assay: In vitro antibacterial activity, MIC (standard strain); type: cell-based; conditions: Klebsiella pneumoniae KY(GN)6445; 10^6 cells/ml; standard strain; read-out: MIC
# [5] = tested on: S. faecalis IID 682; assay: as above; type: cell-based; conditions: Enterococcus faecalis, IID682; S. faecalis IID 682; 10^6 cells/ml; standard strain; read-out: MIC
# [6] = tested on: S. agalactiae 4468; assay: In vitro antibacterial activity, MIC (clinical isolates); type: cell-based; conditions: Streptococcus agalactiae; S. agalactiae 4468; 10^6 cells/ml; clinical isolate; read-out: MIC
# [7] = tested on: E. coli ML 4707; assay: In vitro antibacterial activity, MIC (standard strain); type: cell-based; conditions: Escherichia coli, ML4707; E. coli ML 4707; 10^6 cells/ml; standard strain; read-out: MIC
# [8] = tested on: S. pneumoniae 24; assay: In vitro antibacterial activity, MIC (clinical isolates); type: cell-based; conditions: Streptococcus pneumoniae; S. pneumoniae 24; 10^6 cells/ml; clinical isolate; read-out: MIC
# [9] = tested on: Citrobacter freundii IID 976; assay: In vitro antibacterial activity, MIC (standard strain); type: cell-based; conditions: IID976; Citrobacter freundii IID 976; 10^6 cells/ml; standard strain; read-out: MIC
# [10] = tested on: Fusobacterium varium KYA 8501; assay: as above; type: cell-based; conditions: Fusobacterium varium, KYA8501, Fusobacterium varium KYA 8501; 10^6 cells/ml; standard strain; read-out: MIC
# [11] = tested on: P. aeruginosa IFO 12689; assay: as above; type: cell-based, Pseudomonas aeruginosa; conditions: Pseudomonas aeruginosa, IFO12689; P. aeruginosa IFO 12689; 10^6 cells/ml; standard strain; read-out: MIC
# [12] = tested on: S. pneumoniae 3227; assay: In vitro antibacterial activity, MIC (clinical isolates); type: cell-based; conditions: Streptococcus pneumoniae; S. pneumoniae 3227; 10^6 cells/ml; clinical isolate; read-out: MIC
# [13] = tested on: Escherichia coli NIHJ JC-2; assay: In vitro antibacterial activity, MIC (standard strain); type: cell-based; conditions: Escherichia coli, NIHJJC2, Escherichia coli NIHJ JC-2; 10^6 cells/ml; standard strain; read-out: MIC
# [14] = tested on: B. fragilis 0558; assay: as above; type: cell-based, Bacteroides fragilis; conditions: Bacteroides fragilis, 0558, B. fragilis 0558; 10^6 cells/ml; standard strain; read-out: MIC
# [15] = tested on: K. pneumoniae 1-220S; assay: as above; type: cell-based; conditions: Klebsiella pneumoniae, 1220S; K. pneumoniae 1-220S; 10^6 cells/ml; standard strain; read-out: MIC
# [16] = tested on: S. pyogenes IID 692; assay: as above; type: cell-based; conditions: Streptococcus pyogenes, IID692; S. pyogenes IID 692; 10^6 cells/ml; standard strain; read-out: MIC
# [17] = tested on: E. coli ML4707; assay: In vivo antibacterial activity against systemic infection in mice; design: species or system mice (ICR-S)
# Description: (§1) Experiment-2 In vivo antibacterial activity against systemic infection in mice (ICR-S)
# (§2) The infections were produced by intraperitoneal injection of a suspension of the bacterial culture corresponding to the germ studied. The products were administered orally at an hour after the infection.
# [18] = tested on: S. pneumoniae S-4288; assay: as above; design: species or system mice (ICR-S); conditions: Streptococcus pneumoniae, S4288; mice (ICR-S); oral, an hour after intraperitoneal infection; challenge dose 7.5 x 10^4 ~ 4.8 x 10^6 cfu/mouse; read-out: ED50 S. pneumoniae S-4288
# Description: as §1, §2
# [19] = tested on: S. aureus Smith; assay: as above; design: species or system mice (ICR-S); conditions: Staphylococcus aureus, po, mice (ICR-S), an hour after intraperitoneal infection, challenge dose 6.0 x 10^5 cfu/mouse, read-out: ED50 S. aureus Smith
# Description: as §1, §2
# [20] = tested on: Alcaligenes faecalis 0104002; assay: In vitro antibacterial activity, MIC (standard strain); type: cell-based; conditions: Alcaligenes faecalis, 0104002, Alcaligenes faecalis 0104002; 10^6 cells/ml; standard strain; read-out: MIC
# [21] = tested on: S. agalactiae 4342; assay: In vitro antibacterial activity, MIC (clinical isolates); type: cell-based; conditions: Streptococcus agalactiae; S. agalactiae 4342; 10^6 cells/ml; clinical isolate; read-out: MIC
# [22] = tested on: S. faecalis 49; assay: as above; type: cell-based; conditions: Enterococcus faecalis; S. faecalis 49; 10^6 cells/ml; clinical isolate; read-out: MIC
# [23] = tested on: S. aureus Smith; assay: In vitro antibacterial activity, MIC (standard strain); type: cell-based, Staphylococcus aureus; conditions: Staphylococcus aureus; S. aureus Smith; 10^6 cells/ml; standard strain; read-out: MIC
# [24] = tested on: S. pyogenes 3130; assay: In vitro antibacterial activity, MIC (clinical isolates); type: cell-based; conditions: Streptococcus pyogenes, read-out: MIC
# [25] = tested on: Shigella sonnei IID 969; assay: In vitro antibacterial activity, MIC (standard strain); type: cell-based; conditions: IID969, 10^6 cells/ml
# Description: Experiment-1 In vitro antibacterial activity
# The in vitro antibacterial activity against gram-positive and gram-negative bacteria has been investivated.
# The minimum inhibitory concentration (MIC) was determined in accordance with the method recommended by Japan Society of Chemotherapy.
# [26] = tested on: S. pyogenes 4340; assay: In vitro antibacterial activity, MIC (clinical isolates); type: cell-based; conditions: Streptococcus pyogenes; S. pyogenes 4340; 10^6 cells/ml; clinical isolate; read-out: MIC
# [27] = tested on: Streptococcus pyogenes S-8; assay: In vitro antibacterial activity, MIC (standard strain); type: cell-based; conditions: S8; Streptococcus pyogenes S-8; 10^6 cells/ml; standard strain; read-out: MIC
compound,measurement,setting,value
"CCNCC1CCN(c2c(F)cc3c(=O)c(C(=O)O)cn(C4CC4)c3c2Cl)C1 (stereo not drawn) [Example 13, 8-Chloro-l-cyclorpropyl-6-fluoro-1,4-dihydro-7-(3-ethylaminomethyl-l-pyrrolidinyl)-4-oxo-3-quinolinecarboxylic acid]",MIC,[1],0.78 µg/mL
same,MIC,[2],0.1 µg/mL
same,MIC,[3],0.1 µg/mL
same,MIC,[4],0.05 µg/mL
same,MIC,[5],0.05 µg/mL
same,MIC,[6],0.05 µg/mL
same,MIC,[7],0.025 µg/mL
same,MIC,[8],0.05 µg/mL
same,MIC,[9],0.05 µg/mL
same,MIC,[10],0.39 µg/mL
same,MIC,[11],1.56 µg/mL
same,MIC,[12],0.05 µg/mL
same,MIC,[13],0.0125 µg/mL
same,MIC,[14],0.1 µg/mL
same,MIC,[15],0.1 µg/mL
same,MIC,[16],0.05 µg/mL
same,ED50,"[17]; Escherichia coli, ML4707, mice (ICR-S), oral, an hour after intraperitoneal infection, challenge dose 2.7 x 10^6 ~ 8.8 x 10^6 cfu/mouse, read-out: ED50 E. coli ML4707",0.7 mg/kg
same,activity against gram-negative bacterial infections compared with the reference compounds,"[17]; systemic infection in mice, result in words",greater activity against gram-negative bacterial infections than the reference compounds
same,ED50,[18],2 mg/kg
same,ED50,[19],0.6 mg/kg
same,MIC,[20],0.39 µg/mL
same,MIC,[21],0.05 µg/mL
same,MIC,[22],0.05 µg/mL
same,MIC,[23],0.025 µg/mL
same,MIC,[24],0.05 µg/mL
same,MIC,[25],0.025 µg/mL
same,MIC,[26],0.05 µg/mL
same,MIC,[27],0.05 µg/mL
